Reference: patent US7410972B2, “Compounds” (AstraZeneca AB, priority 2001, dated 2008)

Tests used:
[1] = target: T1, human recombinant CCR4 receptor (Homo sapiens, UniProt P51679); experiment: FMAT Whole Cell Binding Assay (FB-MDC binding to CHO-K1 cells expressing CCR4); settings: CHO-K1 cells stably expressing human recombinant CCR4; inhibition of FB-MDC fluorescent probe binding, two hours incubation at room temperature
T1 construct: Brussels, Belgium; host or cells: CHO-K1
T1 sequence (P51679 1-360): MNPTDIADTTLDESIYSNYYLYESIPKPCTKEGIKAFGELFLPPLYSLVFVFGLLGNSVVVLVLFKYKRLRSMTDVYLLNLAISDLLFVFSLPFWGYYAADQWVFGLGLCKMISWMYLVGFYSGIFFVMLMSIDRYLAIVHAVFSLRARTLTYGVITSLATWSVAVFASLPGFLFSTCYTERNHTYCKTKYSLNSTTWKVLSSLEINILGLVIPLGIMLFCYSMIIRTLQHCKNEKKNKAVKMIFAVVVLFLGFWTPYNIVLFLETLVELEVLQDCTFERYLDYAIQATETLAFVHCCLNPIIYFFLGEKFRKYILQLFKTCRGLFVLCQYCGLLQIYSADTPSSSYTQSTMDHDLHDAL
Protocol: FMAT Whole Cell Binding Assay
CHO-K1 cells stably expressing the human recombinant CCR4 receptor (Euroscreen; Brussels, Belgium) were cultured in NUT.MIX.F—12(HAM) medium with glutamax-1, containing 10% (v/v) foetal bovine serum and 400 μg ml^−1 geneticin.
Cells were harvested at approximately 70% confluence by treatment with a cell dissociation buffer, and seeded at 5×10^3 cells/100 μl culture medium into wells of a black Costar clear-bottomed 96-well microtitre plates. Plates were incubated overnight at 37° C. in 5% CO2 and used the following day.
Before use, the cell plates were washed twice with 100 μl Hanks balanced salt solution (HBSS). To each well was then added 65 μl of HBSS, 10 μL of 10% DMSO in HBSS±test compound and then 25 μL of 2.8 nM FB-MDC (Applied Biosystems). This fluorescent probe was prepared from a 10 μM stock in 0.08% (v/v) TFA/16% (v/v) acetonitrile, diluted into HBSS.
After two hours incubation in the dark at room temperature, the plates were analysed in an FMAT8100 reader (Applied Biosystems) to measure fluorescence that was associated with binding of FB-MDC to the cells. Compound activity was determined as an pIC50 [log(concentration of compound that results in 50% inhibition)], comparing fluorescence in control and background wells.
• Fluorescence (ctrl)=1200 • Fluorescence (bkg)=0

SMILES	melting point	IC50 [1]
Cc1cnc(NS(=O)(=O)c2ccc(Cl)s2)c(OCc2cccnn2)n1 [Example 24, 5-Chloro-N-[5-methyl-3-(3-pyridazinylmethoxy)-2-pyrazinyl]-2-thiophenesulphonamide]	179 to 181 °C	–
O=S(=O)(Nc1nc(Cl)cnc1OCc1ccco1)c1ccc(Cl)s1 [Example 20, 5-Chloro-N-[6 chloro-3-(2-furanylmethoxy)-2-pyrazinyl]-2-thiophenesulphonamide]	130 to 133 °C	–
COc1nc(Br)cnc1NS(=O)(=O)c1ccc(Cl)s1 [Example 1, N-(5-Bromo-3-methoxy-2-pyrazinyl)-5-chloro-2-thiophenesulphonamide]	–	39.8 nM
Cc1cc(COc2ncc(Cl)nc2NS(=O)(=O)c2ccc(Cl)s2)no1 [Example 21, 5-Chloro-N-[6-chloro-3-(5-methyl-3-isoxazolylmethoxy)2-pyrazinyl]-2-thiophenesulphonamide]	141 to 142 °C	–
O=S(=O)(Nc1nc(Cl)cnc1OCc1ccccn1)c1ccc(Cl)s1 [Example 22]	171 to 172 °C	–
COCCOc1nc(Br)cnc1NS(=O)(=O)c1ccc(Cl)s1 [Example 16, 5-Chloro-N-[5-bromo-3-(2-methoxyethoxy)-2-pyrazinyl]-2-thiophenesulphonamide]	–	631 nM
Cc1cnc(NS(=O)(=O)c2ccc(Cl)s2)c(OCc2cccnc2)n1 [Example 23, 5-Chloro-N-[5-methyl-3-(3-pyridinylmethoxy)-2-pyrazinyl]-2-thiophenesulphonamide]	204 to 205 °C	10 nM

The next lines start with the values.

melting point	IC50 [1]	SMILES
119 to 120 °C	–	COc1nccnc1NS(=O)(=O)c1ccc(Cl)s1 [Example 26, 5-Chloro-N-(3-methoxy-2-pyrazinyl)-2-thiophenesulphonamide]
218 to 219 °C	–	COc1nc(C#N)cnc1NS(=O)(=O)c1ccc(Cl)s1 [Example 31, 5-Chloro-N-[5-cyano-3-methoxy-2-pyrazinyl]-2-thiophenesulphonamide]
95 to 96 °C	–	COc1nc(C)c(C)nc1NS(=O)(=O)c1ccc(Cl)s1 [Example 27, 5-Chloro-N-(5,6-dimethyl-3-methoxy-2-pyrazinyl)-2-thiophenesulphonamide]
192 to 194 °C	–	COc1nc(SCCN)cnc1NS(=O)(=O)c1ccc(Cl)s1 [Example 30, N-[5-{(2-Aminoethyl)sulpanyl}-3-methoxy-2-pyrazinyl]-5-chloro-2-thiophenesulphonamide]
109 to 110 °C	–	O=S(=O)(Nc1nccnc1OCc1ccccn1)c1ccc(Cl)s1 [Example 25, 5-Chloro-N-[3-(2-pyridinylmethoxy)-2-pyrazinyl]-2-thiophenesulphonamide]
